Patent publication US20230399623A1, “ARTIFICAL LIVER ORGANOIDS AND METHODS OF THEIR PRODUCTION” (Oslo Universitetssykehus HF, priority 2020, published 2023)

Columns and labels:
organoids [1] = experiment: Oleic acid accumulation assay (BODIPY lipid staining); assay type: cell-based, human; details: 300 μM, 5 days
Method: 1 M Oleic acid (Sigma Aldrich) was diluted with NaOH (Sigma Aldrich) and heated at 70° C. for 30 minutes to form a 20 mM Sodium Oleate solution. This was then diluted with a 5% BSA/PBS solution at 37° C. to form a 5 mM Sodium Oleate/BSA complex. This was further diluted to 300 μM in culture media and incubated with organoids for 5 days, changing the media each day. After the fatty acid treatment, the organoids were then incubated with 3.8 μM BODIPY 493/503 (Life Technologies) for 30 minutes in culture media at 37° C., then washed two times with PBS before replacing with fresh culture media containing DRAQ5 (Thermofisher) at 1:1500. Organoids were then imaged on a confocal as described above.

organoids [2] = experiment: Heroin metabolism in liver organoids (UPLC-MS/MS); assay type: in vitro ADME, human; details: 10 μM heroin
Method: After 21 days differentiation, 50 organoids per well were loaded in triplicate into a 96-well plate and treated with culture media supplemented with 10 μM heroin for 1, 3, 6, and 24 hours. For controls, we used culture media without organoids; these were performed in parallel to measure heroin degradation throughout the experiment. To stop metabolism at each time point the samples were transferred to a new 96-well plate prefilled with formic acid (final conc. 0.1 M) along with internal standards. The samples were centrifuged for 10 minutes at 1000×g at 4° C. The supernatants were transferred to auto-sampler vials and analysed for heroin, morphine, and M3G using an Acquity UPLC system (Waters, Milford, MA) coupled to a Xevo-TQS triple quadrupole mass spectrometer with an electrospray ionization interface (Waters) based on a method previously described 62. Data acquisition, peak integration, and quantification of samples were performed using MassLynx 4.0 SCN509 software (Waters Corp., Milford, MA, USA).
The field of non-CYP450-mediated metabolism has attracted increasing attention as an important player in absorption, distribution, metabolism, and excretion^44. […] We tested if organoids supported heroin metabolism by exposure to 10 μM heroin and quantification by UPLC-MS/MS. […]

[3] = tested on: human liver microsomes and a human S9 fraction; experiment: Heroin metabolism in control liver fractions; assay type: in vitro ADME; details: controls: human liver microsomes and human S9 fraction
Description: The field of non-CYP450-mediated metabolism has attracted increasing attention as an important player in absorption, distribution, metabolism, and excretion^44. We investigated liver carboxyl esterases (CES), which are hydrolytic enzymes involved in the metabolism of endogenous esters, ester-containing drugs, pro-drugs and environmental toxicants^45. The CES enzymes also metabolize a wide range of xenobiotic substrates including heroin, which is metabolized by sequential deacetylation (phase I reaction) to 6-monoacetylmorphine (6-MAM) and morphine. Morphine is then glucuronidated, by a phase II reaction via UDP-glucuronosyltransferase (UGT) to morphine-3-glucuronide (M3G). We tested if organoids supported heroin metabolism by exposure to 10 μM heroin and quantification by UPLC-MS/MS. We also compared organoid metabolism to human liver microsomes and a human S9 fraction (unfractionated microsomes and cytosol. The kinetics of metabolism was slower in the organoids we observed phase I metabolism of heroin by CES to morphine in approximately 6 hours, while the controls produced morphine in approximately 12 minutes. However, phase II metabolism (UGT) to morphine glucuronides was detectable in the organoids and absent in the controls.

Row | SMILES | lipid accumulation in organoids (Bodipy) (organoids [1]) | phase II metabolism (UGT) to morphine glucuronides (organoids [2]) | phase II metabolism (UGT) to morphine glucuronides [3]
1 | CCCCCCCC/C=C\CCCCCCCC(=O)O [free fatty acid, Oleic acid] | massive lipid accumulation |  | 
2 | CC(=O)Oc1ccc2c3c1O[C@H]1[C@@H](OC(C)=O)C=C[C@H]4[C@@H](C2)N(C)CC[C@@]341 [heroin] |  | detectable | absent
